Laboratory results as given in patent publication US20120184548A1, “CARBOXYLIC ACID ARYL AMIDES” (priority 2011, published 2012).

What was measured:
Human DYRK1B = target: T1, Human DYRK1B (Homo sapiens, UniProt Q9Y463); test: DYRK1B Kinase TR-FRET (IMAP-Tb) Assay; format: biochemical; conditions: TR-FRET; ATP 70 μM; 37° C. for 60 minutes; averages of multiple runs; read-out: Enzyme IC50 DYRK1B
T1 construct: purchased Invitrogen PR8350B (former PV4649)
From the text: The kinase TR-FRET (IMAP-Tb) assay uses a fluorescence labeled substrate peptide in the kinase reaction. Upon phosphorylation by the kinase, phosphopeptide is produced, which will be detected by the binding solution provided in IMAP TR-FRET binding kit. After the completion of the kinase reaction, the reaction will be stopped by adding the binding solution containing terbium tracer. This tracer is immobilized on the surface of the IMAP beads, which also contain metal ions on the beads that bind to the phospho-groups of the products. Thus the phosphorylated product of the reaction can enter into close proximity to the tracer, producing resonance energy transfer. Due to the long lifetime of terbium (Tb) fluorescence the detection can be run in time resolved mode, which virtually eliminates fluorescence interference from assay components or compounds. […] IC50 is the amount of test compound that inhibits 50% of the activity of DYRK1B in this assay. […] 1. Human DYRK1B: from Invitrogen. Part # PR8350B (former PV4649) 2. Substrate Peptide: RRRFRPASPLRGPPK 3. IMAP TR-FRET IPP Explorer Kit: from Molecular Devices. Part # R8157 4. Kinase Assay Buffer (KAB): 10 mM HEPES pH 7.0, 50 mM NaCl, 5 mM MgCl2, 1 mM DTT, 1 mM NaVO4, 200 μg/mL BSA (0.02%) 5. Assay Plate: Remp polypropylene clear 384-well microplate. Cat#23490-102 6. Detection Plate: Costa black 384-well microplate. Cat #3710 Assay Procedure: This assay was performed as follows: 1. Transfer 1.5 μL of 20× compound solution to each well of an assay plate. 2. Add to each well 22.5 μL of KAB Buffer. 3. Add to each well 3 μL of the solution of DYRK1B and ATP. […] Add to each well 3 μL of the substrate peptide. […] Incubate the assay plates at 37° C. for 60 minutes. 6. Add 18 μL of Detection Solution (1:800 diluted Progress bead stock, 1:400 diluted Tb stock, 80% Buffer A, and 20% Buffer B) into each well of detection plates. 7. Transfer 6 μL of assay solution from the assay plate to the detection plate. 8. Shake detection plates for 30 minutes. 9. Read plates in Envision with wavelength set at excitation 340 nm for Tb, emission 490 nm, and […]. 10. Calculation: TR-FRET Signal=(Reading at […])×2000000

[1] = test system: SW620 human colon cancer cells; test: SW620 Cell Viability Assay (CellTiter-Glo); format: cell-based; conditions: SW-620, 96 h, 4 days incubation, read-out: Cellular EC50 SW620
Description: 1. Cell Plate Preparation: SW620 human colon cancer cells (known to express DYRK1B), obtained from ATCC, were seeded into 96-well plates at […] in 50 μL of media. • Harvested the required number of cells (counts & viability determined by Guava Viacount). • Centrifuge cells to pellet and removed supernant. • Resuspended in growth media (50 μL/well) & pipetted thoroughly to break up clumps. • Setup for ˜100 wells/plate, therefore, VT=5 mL/plate @ 1.2×10^5 cells/mL. 1A. Some cells (S-) were allowed to attach for 24 hrs, serum starved for 48 hrs, and then followed with treatments of test compound.
Test Compound solution was prepared in regular corresponding media supplemented with serum
2. Test Compound Preparation: Test compounds were solubilized in either DMSO or media and prepared at various stock concentrations. • All compounds were incubated at 37° C. for 30 minutes and vortexed. • (5 mM stocks of test compound were prepared for non-soluble drugs)
3. Test Compound Plate Preparation:
• The 10 mM test compound stock was diluted to a concentration of 100× the final Cmax concentration. • Then the test compound stock is diluted 50-fold in media and/or second test compound for a final Cmax concentration in the test compound plate. • The Cmax in the test compound plate (2% DMSO) is 2-fold higher than the final Cmax in the cell plate (60 uL titrations were 1:3). 4. Viability Assay: This assay was performed as follows: • Transfer 50 μL of test compound solution per well from the test compound plate onto the cell plate prepared in Step #1. • Mix the plate with treated cells by pipetting up and down three times with 200 μL multi-channel pipet. • Incubate the cells in 5% CO2 incubator @ 37° C. for 4 days. • Run the CellTiter-Glo™ Luminescent Cell Viability Assay. The results of this assay, given as EC50 values, indicate the concentration of test compound that inhibits tumor cell proliferation by 50%.

Human DYRK1A = target: T2, Human DYRK1A (Homo sapiens, UniProt Q13627); test: DYRK1A Kinase TR-FRET (IMAP-Tb) Assay; format: biochemical; conditions: TR-FRET; ATP 70 μM; 37° C. for 60 minutes; averages of multiple runs; read-out: Enzyme IC50 DYRK1A
T2 construct: purchased Invitrogen PV3997
From the text: The kinase TR-FRET (IMAP-Tb) assay uses a fluorescence labeled substrate peptide in the kinase reaction. Upon phosphorylation by the kinase, phosphopeptide is produced, which will be detected by the binding solution provided in IMAP TR-FRET binding kit. After the completion of the kinase reaction, the reaction will be stopped by adding the binding solution containing terbium tracer. This tracer is immobilized on the surface of the IMAP beads, which also contain metal ions on the beads that bind to the phospho-groups of the products. Thus the phosphorylated product of the reaction can enter into close proximity to the tracer, producing resonance energy transfer. Due to the long lifetime of terbium (Tb) fluorescence the detection can be run in time resolved mode, which virtually eliminates fluorescence interference from assay components or compounds.
The TR-FRET signal measurement from this assay, given as an IC50 measurement, is a measure of a test compound's ability to interfere with the phosphorylation of the peptide substrate, that is it inhibits the phosphorylation of the substrate peptide by DYRK1A, and is thus a measure of the test compound's ability to inhibit the activity of DYRK1A.
1. Human DYRK1A: from Invitrogen. Part # PV3997
2. Substrate Peptide: […]
3. IMAP TR-FRET IPP Explorer Kit: from Molecular Devices. Part # R8157 4. Kinase Assay Buffer (KAB): 10 mM HEPES pH 7.0, 50 mM NaCl, 5 mM MgCl2, 1 mM DTT, 1 mM NaVO4, 200 μg/mL BSA (0.02%) 5. Assay Plate: Remp polypropylene clear 384-well microplate. […] Detection Plate: Costa black 384-well microplate. […] Transfer 1.5 μL of 20× compound solution to each well of an assay plate. 2. Add to each well 22.5 μL of KAB Buffer. 3. Add to each well 3 μL of the solution of DYRK1A and ATP. […] Add to each well 3 μL of the substrate peptide. The assay concentration is 1.0 μM 5. Incubate the assay plates at 37° C. for 60 minutes. 6. Add 18 μL of Detection Solution (1:800 diluted Progress bead stock, 1:400 diluted Tb stock, 80% Buffer A, and 20% Buffer B) into each well of detection plates. 7. Transfer 6 μL of assay solution from the assay plate to the detection plate. 8. Shake detection plates for 30 minutes. 9. Read plates in Envision with wavelength set at excitation 340 nm for Tb, emission 490 nm, and […].

T1 sequence (Q9Y463 whole entry): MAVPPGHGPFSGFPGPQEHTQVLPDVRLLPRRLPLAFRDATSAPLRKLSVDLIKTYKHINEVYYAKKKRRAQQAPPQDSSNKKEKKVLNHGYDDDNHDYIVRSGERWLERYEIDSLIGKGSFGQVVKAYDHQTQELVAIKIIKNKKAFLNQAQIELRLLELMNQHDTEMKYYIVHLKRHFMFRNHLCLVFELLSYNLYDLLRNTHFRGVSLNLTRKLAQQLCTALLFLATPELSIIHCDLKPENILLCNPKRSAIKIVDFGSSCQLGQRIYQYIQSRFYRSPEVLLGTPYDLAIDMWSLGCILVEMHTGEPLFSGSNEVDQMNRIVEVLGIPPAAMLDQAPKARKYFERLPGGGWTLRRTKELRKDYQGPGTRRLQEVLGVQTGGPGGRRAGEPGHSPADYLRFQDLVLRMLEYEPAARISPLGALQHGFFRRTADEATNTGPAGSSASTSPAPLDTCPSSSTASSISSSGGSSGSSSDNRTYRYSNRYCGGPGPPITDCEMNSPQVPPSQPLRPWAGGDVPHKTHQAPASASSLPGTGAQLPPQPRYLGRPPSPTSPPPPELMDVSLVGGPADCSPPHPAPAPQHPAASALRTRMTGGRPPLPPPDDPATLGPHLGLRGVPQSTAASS

Structure (SMILES) | IC50 (Human DYRK1B) [nM] | EC50 [1] [nM] | IC50 (Human DYRK1A) [nM]
COCCOc1cc2cc(C(=O)Nc3cc(C(=O)NC(CCN)c4ccccc4)ccc3C)c(=O)[nH]c2cc1OC (stereo not drawn) [Example 38, 7-Methoxy-6-(2-methoxy-ethoxy)-2-oxo-1,2-dihydro-quinoline-3-carboxylic acid [5-(3-amino-1-phenyl-propylcarbamoyl)-2-methyl-phenyl]-amide] | 44.8 | 2760 | 34.7
COC(=O)c1ccc(C)c(NC(=O)c2cc3cc(OCCN4CCOCC4)c(OC)cc3[nH]c2=O)c1 [Example 39, 3-{[7-Methoxy-6-(2-morpholin-4-yl-ethoxy)-2-oxo-1,2-dihydro-quinoline-3-carbonyl]-amino}-4-methyl-benzoic acid methyl ester] | 190 | 3410 | 150
COc1cc2cc(C(=O)Nc3cc(C(=O)NCc4ccccc4)ccc3C)c(=O)[nH]c2cc1OC [Example 42, 6,7-Dimethoxy-2-oxo-1,2-dihydro-quinoline-3-carboxylic acid (5-benzylcarbamoyl-2-methyl-phenyl)-amide] | 320 | > 10000 | 226
COc1cc2[nH]c(=O)c(C(=O)Nc3cc(C(=O)NCc4cccc(Cl)c4)ccc3C)cc2cc1OCCN1CCOCC1 [Example 43, 7-Methoxy-6-(2-morpholin-4-yl-ethoxy)-2-oxo-1,2-dihydro-quinoline-3-carboxylic acid [5-(3-chloro-benzylcarbamoyl)-2-methyl-phenyl]-amide] | 178 | 306 | 6
COc1cc2[nH]c(=O)c(C(=O)Nc3cc(C(=O)NC(CCN)c4ccccc4)ccc3C)cc2cc1OCCN1CCOCC1 (stereo not drawn) [Example 44, 7-Methoxy-6-(2-morpholin-4-yl-ethoxy)-2-oxo-1,2-dihydro-quinoline-3-carboxylic acid [5-(3-amino-1-phenyl-propylcarbamoyl)-2-methyl-phenyl]-amide] | 63 | > 3000 | 33.4
COCCOc1cc2cc(C(=O)Nc3cc(C(=O)NCc4cccc(Cl)c4)ccc3C)c(=O)[nH]c2cc1OC [Example 52, 7-Methoxy-6-(2-methoxy-ethoxy)-2-oxo-1,2-dihydro-quinoline-3-carboxylic acid [5-(3-chloro-benzylcarbamoyl)-2-methyl-phenyl]-amide] | 181 | 780 | 118
COCCOc1cc2cc(C(=O)Nc3cc(C(=O)OC)ccc3Cl)c(=O)[nH]c2cc1OC [Example 53, Methyl 4-chloro-3-(7-methoxy-6-(2-methoxyethoxy)-2-oxo-1,2-dihydroquinoline-3-carboxamido)benzoate] | 115 | > 10000 | 245
COCCOc1cc2cc(C(=O)Nc3cc(C(=O)NCc4cccc(Cl)c4)ccc3Cl)c(=O)[nH]c2cc1OC [Example 55, N-(2-Chloro-5-(3-chlorobenzylcarbamoyl)phenyl)-7-methoxy-6-(2-methoxyethoxy)-2-oxo-1,2-dihydroquinoline-3-carboxamide] | 37.3 | 129 | 48.9
COc1cc2cc(C(=O)Nc3cc(C(=O)N[C@H](CO)c4ccccc4)ccc3C)c(=O)[nH]c2cc1OC [Example 57, (S)-N-(5-(2-Hydroxy-1-phenylethylcarbamoyl)-2-methylphenyl)-6,7-dimethoxy-2-oxo-1,2-dihydroquinoline-3-carboxamide] | 883 | 6500 | 186
COCCOc1cc2cc(C(=O)Nc3cc(C(=O)NC(CN)c4cccc(Cl)c4)ccc3Cl)c(=O)[nH]c2cc1OC (stereo not drawn) [Example 60, N-(5-(2-Amino-1-(3-chlorophenyl)ethylcarbamoyl)-2-chlorophenyl)-7-methoxy-6-(2-methoxyethoxy)-2-oxo-1,2-dihydroquinoline-3-carboxamide] | 21.7 | 200 | 14.3
COCCOc1cc2cc(C(=O)Nc3cc(C(=O)NC(CCN)c4ccccc4)ccc3Cl)c(=O)[nH]c2cc1OC (stereo not drawn) [Example 61, N-(5-(3-Amino-1-phenylpropylcarbamoyl)-2-chlorophenyl)-7-methoxy-6-(2-methoxyethoxy)-2-oxo-1,2-dihydroquinoline-3-carboxamide] | 11.5 | 470 | 15.7
COCCOc1cc2cc(C(=O)Nc3cc(C(=O)NC(CN)c4ccccc4)ccc3Cl)c(=O)[nH]c2cc1OC (stereo not drawn) [Example 62, N-(5-(2-Amino-1-phenylethylcarbamoyl)-2-chlorophenyl)-7-methoxy-6-(2-methoxyethoxy)-2-oxo-1,2-dihydroquinoline-3-carboxamide] | 29.1 | 440 | 11.4
COCCOc1cc2cc(C(=O)Nc3cc(C(=O)N[C@H](CCN)c4ccccc4)ccc3Cl)c(=O)[nH]c2cc1OC [Example 63, (R)-N-(5-(3-Amino-1-phenylpropylcarbamoyl)-2-chlorophenyl)-7-methoxy-6-(2-methoxyethoxy)-2-oxo-1,2-dihydroquinoline-3-carboxamide] | 8 | 640 | 5
